The target in one data set is T1, WWP1-L34H (Homo sapiens, UniProt Q9H0M0).
T1 construct: WWP1- 2,3-linker-WW3-WW4-HECT (WWP1-L34H); made in house; host or cells: E. coli BL21-CodonPlus RP (plasmid pET32a-WWP1-L34H, gifted by Dr Wenyu Wen)
Put plainly: WWP1 ELISA autoubiquitination assay. Format: biochemical. The method, then: (§1) Cell lysate containing His-tagged WWP1-L34H or GST-tagged WWP2-FL proteins were incubated on either 96-well Clear Pierce glutathione or nickel-coated plates for 1 h in PBS. Reaction mixtures of either 3 ng/well GST-Uba1 and 15 ng/well UbcH7 or 10 ng/well His-Uba1 and 150 ng/well His-UbcH7 were incubated together in 25 mM Tris pH 8.0, 100 mM NaCl, 4 mM MgCl2 containing 60 ng/well FLAG-ubiquitin and 1.25 mM ATP for 40 min. A prior 1% BSA plate blocking step is required for nickel-coated plates. After plate washing, 2 μL of the compound was added at the desired concentration (0.1 – 1% DMSO) followed by 18 μL of the reaction mixture. This was then incubated for 2 h with 0% and 100% controls before 100 μL of anti-FLAG M2-Peroxidase HRP (1: 10,000 PBST) was added to each well and incubated for 1 h. Finally, 100 μL of 1 × TMB substrate solution (Invitrogen) was added to each well and incubated for up to 10 min until sufficient blue colour change was observed. To stop the reaction, 100 μL of 1 M HCl was added. GST-tagged Uba1 counter-assay followed a similar protocol first incubating cell lysate for 1 h before adding 20 µL of reaction mixture containing 60 ng/well FLAG-ubiquitin, 1.25 mM ATP, and 1 mM compound at 1% DMSO. His-tagged UbcH7 counter-assays preincubated 3 ng/well GST-Uba1 and 200 ng/well UbcH7 with the reaction mixture components (60 ng/well FLAG-ubiquitin, 1.25 mM ATP, and 1 mM compound at 1% DMSO) for 1 h before incubating onto nickel-coated plates for a further 1 h. All other steps were followed. The plates were washed three times with PBST (and 15 mM Imidazole) between each step. Quantification was measured by absorbance read at 450 nm, standardised to the 0% and 100% activity controls. A visual representation of the assay steps is shown in SI Figure S13. All assay optimisations have been previously reported by Watt and colleagues. IC50 non-linear regression curves were calculated in GraphPad v10.2 (Prism).
(§2) The DSF hit compounds were initially screened using a single-shot WWP1 and WWP2 ELISA autoubiquitination assay at 500 µM compound (1% DMSO), measuring inhibition against their relative autoubiquitination activity following protocols previously described. […] Four NSC compounds for WWP1 (13151, 73735, 85433 & 637578) and three NSC compounds for WWP2 (26112, 57103 & 217913) were initially selected having a threshold of less than 50% relative activity when compared to 0% and 100% controls (Figure 2).
(§3) The resulting synthesised analogues were screened using the single-shot ELISA autoubiquitination assay at 1 mM compound concentration (1% DMSO) before IC50 values were calculated for hit compounds (SI Figure 2–4).
Background: In an ELISA, binding on a coated surface is turned into a signal by an enzyme label.

A further data set deals with T2, WWP2-FL (Homo sapiens, UniProt O00308).
T2 construct: full-length WWP2 (WWP2-FL); made in house; host or cells: E. coli BL21-CodonPlus RP (plasmid pGEX2T-WWP2-FL, Dr Andrew Chantry's Lab)
The data set is described as follows: WWP2 ELISA autoubiquitination assay. Format: biochemical. As for the experimental part:
as §1, §2, §3
ELISA Autoubiquitination Assay
Figure S13. Schematic diagram of the WWP2 ELISA autoubiquitination assay. (1a) Immobilisation of GST-Tagged WWP2 on glutathione coated plates. The GST-tagged (green) WWP2-FL (orange) is bound to glutathione (black), further linked via an SSMPB linker (pink) bound to haemoglobin (red). (1b) Reaction mixture of His-E1, His-E2 and flag-tagged Ub. Flag-tagged (red) Ub (dark pink) is first charged to Uba1/E1 (light pink) using ATP (blue) and then transferred to UbcH7/E2 (light brown).
(2) Ub charged E2 incubation with immobilised WWP2. UbcH7/E2 transfers flag-tagged Ub to WWP2 before WWP2 auto-ubiquitination occurs in the absence or presence of compounds (blue). (3) Incubation of recombinant HRP anti-flag antibody with auto-ubiquitinated WWP2. Anti-flag antibody (purple) containing recombinant HRP (orange) associates with the flag-tagged Ub. (4) HRP-mediated oxidation of TMB.
Single-electron oxidation of TMB by HRP in the presence of HO creates first a blue colour change, before acidification results in a yellow colour change (450 nm) stopping

The next data set has as its target T3, UbcH7 (Homo sapiens, UniProt P68036).
T3 construct: made in house; host or cells: E. coli BL21-CodonPlus RP (plasmid pET3a-UbcH7 His, gifted by Professor Martin Scheffner)
Put plainly: UbcH7 counter autoubiquitination assay. Format: biochemical. As to conditions: 1 mM compound, 1% DMSO; in Table S6 73735 and 217913 synthesised. As for the experimental part:
as §1
These preliminary hit compounds were further screened in dose-dependent ELISA autoubiquitination assays from 500 µM − 5 nM, with three NSC compounds for WWP1 (13151, 73735 & 85433) and only two NSC compounds for WWP2 (57103 & 217913) showing a dose-response (SI Table S4). […] To ensure the intended target was being inhibited and not the […] Uba1 (E1) and UbcH7 (E2) enzymes used in the catalytic cascade of the assay, a counter autoubiquitination screen was utilised. Upon counter-activity analysis, only with NSC-217913 did UbcH7 retain more than 90% activity and so this was selected as the sole validated hit compound from our inhibition screen (SI Table S6).

For the next data set, the system named is WWP1. The arrangement: method as in PMID 31097636. As to conditions: cited from earlier work.
A further data set relates to WWP2. On the set-up: method as in PMID 30207403. As to conditions: cited from earlier work.
Setting [1] is: synthesised compound, WWP2-FL, 1% DMSO, 95% CI range in brackets.
[2] abbreviates: sample used directly from the NCI library, dose range 500 µM - 5 nM.

We go through four compounds from article PMC11373361, “Expanding the inhibitor space of the WWP1 and WWP2 HECT E3 ligases” (Journal of Enzyme Inhibition and Medicinal Chemistry, 2024).

Values joined by “and” are separate entries in the source; they are usually repeats but may differ in a detail not shown here. Equal values may be shown once.

T2 sequence (O00308 whole entry): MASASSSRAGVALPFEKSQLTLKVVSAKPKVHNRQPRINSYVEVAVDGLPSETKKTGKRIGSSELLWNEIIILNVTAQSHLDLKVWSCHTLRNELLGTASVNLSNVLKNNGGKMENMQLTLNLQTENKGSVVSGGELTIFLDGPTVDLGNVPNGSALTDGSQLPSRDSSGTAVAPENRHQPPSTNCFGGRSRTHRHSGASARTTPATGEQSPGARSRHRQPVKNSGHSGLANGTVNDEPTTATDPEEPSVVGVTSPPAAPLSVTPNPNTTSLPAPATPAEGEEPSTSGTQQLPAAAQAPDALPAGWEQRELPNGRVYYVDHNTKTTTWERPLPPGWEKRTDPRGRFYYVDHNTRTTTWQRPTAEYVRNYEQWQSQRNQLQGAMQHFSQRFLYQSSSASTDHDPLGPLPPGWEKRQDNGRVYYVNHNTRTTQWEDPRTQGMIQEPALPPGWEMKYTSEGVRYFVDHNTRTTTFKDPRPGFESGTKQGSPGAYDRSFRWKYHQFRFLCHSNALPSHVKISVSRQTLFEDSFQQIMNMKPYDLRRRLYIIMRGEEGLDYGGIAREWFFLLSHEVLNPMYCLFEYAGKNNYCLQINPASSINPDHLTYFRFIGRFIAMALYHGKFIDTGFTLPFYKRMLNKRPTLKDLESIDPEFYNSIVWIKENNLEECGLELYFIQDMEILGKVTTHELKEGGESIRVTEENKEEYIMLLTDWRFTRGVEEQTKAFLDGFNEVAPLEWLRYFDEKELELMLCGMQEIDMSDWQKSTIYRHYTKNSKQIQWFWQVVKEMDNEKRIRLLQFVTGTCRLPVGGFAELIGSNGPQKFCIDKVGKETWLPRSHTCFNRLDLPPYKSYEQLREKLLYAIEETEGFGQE
T1 sequence (Q9H0M0 415-922, stated change not applied): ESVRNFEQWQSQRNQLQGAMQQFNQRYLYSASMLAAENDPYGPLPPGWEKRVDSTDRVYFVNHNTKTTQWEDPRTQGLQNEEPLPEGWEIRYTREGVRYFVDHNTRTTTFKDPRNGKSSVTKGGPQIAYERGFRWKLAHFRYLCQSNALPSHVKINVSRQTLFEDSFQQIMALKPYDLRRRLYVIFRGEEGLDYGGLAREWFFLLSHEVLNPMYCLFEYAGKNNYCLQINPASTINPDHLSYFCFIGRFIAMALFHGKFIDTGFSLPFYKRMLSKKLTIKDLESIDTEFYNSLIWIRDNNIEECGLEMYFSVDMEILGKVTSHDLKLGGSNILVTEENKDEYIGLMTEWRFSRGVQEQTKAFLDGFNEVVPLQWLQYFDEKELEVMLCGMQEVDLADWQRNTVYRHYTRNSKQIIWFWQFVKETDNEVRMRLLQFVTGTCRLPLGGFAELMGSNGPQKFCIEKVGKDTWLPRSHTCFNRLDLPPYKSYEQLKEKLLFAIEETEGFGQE
T3 sequence (P68036 whole entry): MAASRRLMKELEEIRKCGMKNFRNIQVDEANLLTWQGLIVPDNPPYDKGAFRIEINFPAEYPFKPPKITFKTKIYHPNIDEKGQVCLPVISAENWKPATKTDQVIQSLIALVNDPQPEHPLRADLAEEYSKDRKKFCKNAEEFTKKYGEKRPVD

In turn, `O=C(O)CSc1nc2nc(Cl)c(Cl)nc2[nH]1` [Compound 15, ({5,6-dichloro-1H-imidazo[4,5-b]pyrazine-2-yl}sulfanyl)acetic acid] returned a melting point of 219.1 to 220.7 °C. Moreover, on WWP1-L34H (synthesised compound, WWP1-L34H, 1% DMSO, 95% CI range in brackets), the IC50 came out at 375 µM. Further, at WWP2-FL (setting [1]), half-maximal inhibition (IC50) required 666 µM and the “WWP2 IC50” value is on record as “only weakly”. In addition, the “UbcH7 Activity” value on UbcH7 was 93.0 ± 1.0%.
On to `CCc1ccc(C=CC(=O)Nc2ccc(C(C)=O)cc2)o1` [Heclin], for which the IC50 with WWP1 was 6.9 µM.
Take `CCc1oc2ccccc2c1C(=O)c1cc(Br)c(O)c(Br)c1` [NSC-85433]: the “relative autoubiquitination activity, single-shot” value on WWP1-L34H (500 µM compound, 1% DMSO, normalised to 0% and 100% controls) is “less than 50%”. Also, the IC50 was < 100 µM and 92.4 µM at WWP1-L34H (setting [2]); 256 µM on WWP2-FL (setting [2]). Further, at UbcH7, the “UbcH7 Activity” value came to 7.5 ± 0.6%.
As to `COCCn1c2nc(=O)n(-c3ccccc3)c(=O)c-2nc2ccccc21` [NSC-288387], in the data set with WWP2, the IC50 was 2300 nM.

As a reminder, the IC50 is the concentration needed to halve the response being measured. The term melting point denotes the temperature, or range, at which the solid turns liquid.
